The values that follow come from patent publication US20230270704A1, “AMINOACIDS FOR TREATMENT OF NEUROLOGICAL DISORDERS” (ScandiBio Therapeutics AB, priority 2020, published 2023).

One data set has as its system brain tissues. Description: Alzheimer's disease study in HFD + icv STZ rats, histopathology (HE) of brain tissues. The class given is in vivo, Sprague-Dawley rats. As for the experimental part: (§1) 12 weeks old female Sprague-Dawley rats (weighing 320-380 g) were kept at a controlled temperature of 22±2° C. and a controlled humidity of 50±5% on a 12-hour light/dark cycle. Food and water were available ad libitum. The animal experiments are performed at Medical Experimental Research Center, Ataturk University, Erzurum, Turkey. All experiments for the treatment of the animals were approved by the Ethics Committee of Atatürk University, and were conducted following the National Institutes of Health Guide for Care and Use of Laboratory Animals.
(§2) After acclimation to laboratory conditions for one (1) week, rats were randomly divided into two dietary regimens receiving either a Chow diet (CD) or a high-fat diet (HFD. The animals of Group 1 (n=4) were fed with only regular CD for five (5) weeks. The animals of Group 2 (n=4) were fed with CD and treated with STZ. The remaining animals (n=4) were fed with HFD for 3 weeks and sacrificed to verify the model development (Group 3). Groups 4-13 were fed with HFD for 5 weeks. After 3 weeks, the animals in Groups 5-13 were treated with STZ and administered with individual or combined substances. The animals in Group 4 were injected (icy) with a control substance (saline) after 3 weeks.
(§3) Before surgical procedures, the rats were anesthetized by intraperitoneal administration of ketamine-xylazine (50 mg/kg ketamine and 5 mg/kg xylazine) and placed individually in the stereotaxic instrument (Stoelting, Ill., USA). Stereotaxic coordinates for injection were 0.8 mm posterior to the bregma, 1.5 mm lateral to the sagittal suture and 3.6 mm below the brain surface (Pellegrino et al. 1979). Then, 10 microliters of STZ (3 mg/kg, Sigma-Aldrich, Darmstadt, Germany) were injected over 3 min with a Hamilton micro-syringe into the bilateral ventricle. The injection needles were left in place for an additional 2 min to allow diffusion.
(§4) For carrying out the treatment experiments, the HFD rats were randomly separated into nine (9) subgroups of four (4) animals (Groups 5-13).
(§5) The body weight of the rats was recorded each week. After 5 weeks, all animals were anesthetized with isoflurane and sacrificed. Blood samples were collected from the abdominal aorta and centrifuged at 8000 rpm for 15 min at 4° C. The plasma was separated and stored at −80° C. until further analysis. Other internal organs, including the heart, adipose tissues, liver, kidney, brain, muscle, intestine (duodenum, ileum, jejunum), pancreas, colon and stomach were immediately removed and then snap-frozen in liquid nitrogen and stored at −80° C.
Tissue samples obtained as a result of the experimental procedure were fixed in 10% buffered formalin solution for 48 hours. Following the routine tissue procedure, the tissues were embedded in paraffin blocks and 4 μm thick sections were taken from each block. Preparations prepared for histopathological examination were stained with hematoxylin-eosin (HE) and examined with a light microscope (Olympus BX51, Germany).

For the next data set, the system named is 8-OHdG. The data set is described as follows: Alzheimer's disease study in HFD + icv STZ rats, immunohistochemical examination of brain tissues. The data set is classed as in vivo, Sprague-Dawley rats. As to conditions: for 8 OHdG expression in immunohistochemical staining: HFD + STZ rats, grade in words; for 8-OHdG (IHC): HFD 5 weeks + STZ 3 mg/kg icv, substances once daily by oral gavage, score. The protocol:
as §1, §2, §3, §4, §5
Tissue sections taken on adhesive (poly-L-Lysin) slides for immunoperoxidase examination were deparaffinized and […]. After washing the tissues with suppressed endogenous peroxidase activity in 3% H2O2 were boiled in antigen retrieval solution. In order to prevent nonspecific background staining in the sections, protein block compatible with all primary and secondary antibodies was dropped and incubated for 5 minutes. 8-OHdG (Cat no: sc-66036 dilution ratio: 1/100 US) was used as the primary antibody for brain tissues.

The test system of another data set is Caspase 3. The data set is described as follows: Alzheimer's disease study in HFD + icv STZ rats, immunofluorescence examination of brain tissues (FITC). The class given is in vivo, Sprague-Dawley rats. The conditions noted are these: for Caspase-3 expression in immunofluorescence staining: HFD + STZ rats, grade in words; for Caspase 3 (IFA FITC): HFD 5 weeks + STZ 3 mg/kg icv, substances once daily by oral gavage, score. The protocol:
as §1, §2, §3, §4, §5
(§6) Tissue sections taken on adhesive (poly-L-Lysin) slides for immunoperoxidase examination were deparaffinized and […]. After washing the tissues with suppressed endogenous peroxidase activity in 3% H2O2 were boiled in antigen retrieval solution. In order to prevent nonspecific background staining in the sections, protein block compatible with all primary and secondary antibodies was dropped and incubated for 5 minutes. For brain tissues, primary antibody Caspase 3 (Cat No:sc-56053 Dilution Ratio:1/100 US) was dropped and incubated for 1 hour at 37° C. After washing, secondary FITC (Cat No: ab6717 Dilution Ratio:1/500 UK) was dropped and incubated at 37° C. for 30 minutes. The other primary antibody H2A.X (Cat No:I 0856-1 Dilution Ratio:1/100 US) was dropped and incubated at 37° C. for 1 hour. After washing, secondary Texas Red (Cat No: se-3917 Dilution Ratio:1/100 US) was dropped and incubated at 37° C. for 30 minutes. DAPI (Cat No:D-1306 Dilution Ratio:1/200 US) was dripped onto the washed tissues and incubated in the dark for 5 minutes, then glycerin was sealed.

A further data set has as its system H2A.X. The data set is described as follows: Alzheimer's disease study in HFD + icv STZ rats, immunofluorescence examination of brain tissues (Texas Red). The data set is classed as in vivo, Sprague-Dawley rats. As to conditions: for H2A.X expression in immunofluorescence staining: HFD + STZ rats, grade in words; for H2A.X (IFA Texas Red): HFD 5 weeks + STZ 3 mg/kg icv, substances once daily by oral gavage, score. As for the experimental part:
as §1, §2, §3, §4, §5, §6

In the next data set the test system is hepatic steatosis. The data set is described as follows: short-term dietary supplementation with serine in obese subjects with hepatic steatosis. The data set is classed as in vivo, human. As for the experimental part: To test the model-based predictions, the present inventors assessed the effect of short-term dietary supplementation with serine on fatty liver and fasting levels of plasma markers of liver functions in six obese subjects (BMI 32.5±2.70 kg/m2) with hepatic steatosis. Each patient received one oral dose of ˜20 g of L-serine (200 mg/kg) per day for 14 days. The supplementation was well-tolerated by all subjects.

Setting [1] is: brain tissues, HFD 5 weeks + STZ 3 mg/kg icv, substances once daily by oral gavage, score.
[2] abbreviates: fasting plasma marker of liver function, after 14 days of ~20 g/day oral L-serine.

Molecules are shown by their SMILES.

For `C[N+](C)(C)C[C@H](O)CC(=O)[O-].O=C(O)C(O)C(O)C(=O)O` [Group 8, L-carnitine tartrate, reference compound], in the data set on brain tissues (HFD + STZ rats, grade in words), the degeneration in neurons entry was “moderate”, the “hyperemia in brain tissues” value was “Moderate” and the necrosis in neurons entry was “mild”. For the same compound, the “8 OHdG expression in immunohistochemical staining” value (“8 OHdG expression” below) in the data set with 8-OHdG is given as “moderate”. Further, the “Caspase-3 expression in immunofluorescence staining” value (“Caspase-3 expression” below) with Caspase 3 is on record as “moderate”. Further, the “H2A.X expression in immunofluorescence staining” value (from here on “H2A.X expression”) in the data set with H2A.X is reported as “moderate”.

For the compound `CC(=O)N[C@@H](CS)C(=O)O` [Group 7, N-acetyl-L-cysteine, reference compound], in the data set on brain tissues (HFD + STZ rats, grade in words), the degeneration in neurons entry is on record as “severe”, the “hyperemia in brain tissues” value is given as “Severe” and the necrosis in neurons result is on record as “moderate”. For the same compound, the “8 OHdG expression” value in the data set on 8-OHdG is reported as “moderate”. In addition, the “Caspase-3 expression” value in the data set with Caspase 3 is “moderate”. Moreover, the “H2A.X expression” value in the data set on H2A.X is recorded as “moderate”.

Regarding `NC(=O)c1ccc[n+](C2OC(CO)C(O)C2O)c1.[Cl-]` (centres unmarked) [Group 9], in the data set with brain tissues (setting [1]), the Hyperemia entry is on record as “+++ (moderate (+++))”, the “degeneration in neurons” value is recorded as “+++ (moderate (+++))” and the “necrosis in neurons” value is reported as “++ (mild (++))”. The “8-OHdG (IHC)” value with 8-OHdG is reported as “+++ (moderate (+++))”. For the same compound, the “Caspase 3 (IFA FITC)” value in the data set on Caspase 3 is on record as “+++ (moderate (+++))”. Besides, the “H2A.X (IFA Texas Red)” value with H2A.X is reported as “+++ (moderate (+++))”.

Take `N[C@@H](CO)C(=O)O` [Group 6, serine]: in the data set with hepatic steatosis (after 14 days of ~20 g/day oral L-serine, decreased significantly from 26.8±6.0% before), the “liver fat after supplementation” value was 20.4±7.0%. For the same compound, in the data set with hepatic steatosis (setting [2]), the ALP level result is recorded as “significantly decreased”, the ALT level entry is “significantly decreased” and the AST level result is reported as “significantly decreased”. For the same compound, the “tolerability of the supplementation” value in the data set on hepatic steatosis (six obese subjects, one oral dose of ~20 g L-serine (200 mg/kg) per day for 14 days) is recorded as “well-tolerated”. Moreover, in the data set on brain tissues (HFD + STZ rats, grade in words), the degeneration in neurons result is “moderate”, the “hyperemia in brain tissues” value is reported as “Moderate” and the necrosis in neurons entry was “mild”. In addition, the “8 OHdG expression” value with 8-OHdG is on record as “moderate”. Also, in the data set with Caspase 3, the “Caspase-3 expression” value was “moderate”. Further, the “H2A.X expression” value in the data set with H2A.X is listed as “moderate”.

Consider `C[N+](C)(C)CC(O)CC(=O)O.C[N+](C)(C)CC(O)CC(=O)O.O=C([O-])C(O)C(O)C(=O)[O-]` (centres unmarked) [Group 8], for which, in the data set with brain tissues (setting [1]), the Hyperemia entry is listed as “+++ (moderate (+++))”, the “degeneration in neurons” value is reported as “+++ (moderate (+++))” and the “necrosis in neurons” value is “++ (mild (++))”. In addition, in the data set with 8-OHdG, the “8-OHdG (IHC)” value is given as “+++ (moderate (+++))”. The “Caspase 3 (IFA FITC)” value in the data set on Caspase 3 is on record as “+++ (moderate (+++))”. In addition, the “H2A.X (IFA Texas Red)” value in the data set on H2A.X is recorded as “+++ (moderate (+++))”.

For the compound `NC(CO)C(=O)O` (centres unmarked) [Group 6], in the data set with brain tissues (setting [1]), the Hyperemia result is reported as “+++ (moderate (+++))”, the “degeneration in neurons” value is reported as “+++ (moderate (+++))” and the “necrosis in neurons” value is “++ (mild (++))”. For the same compound, the “8-OHdG (IHC)” value in the data set with 8-OHdG is on record as “+++ (moderate (+++))”. In addition, in the data set with Caspase 3, the “Caspase 3 (IFA FITC)” value is reported as “+++ (moderate (+++))”. In the data set with H2A.X, the “H2A.X (IFA Texas Red)” value is “+++ (moderate (+++))”.

Regarding `NC(=O)c1ccc[n+]([C@@H]2O[C@H](CO)[C@@H](O)[C@H]2O)c1.[Cl-]` [Group 9, nicotinamide riboside chloride], in the data set with brain tissues (HFD + STZ rats, grade in words), the degeneration in neurons entry is “moderate”, the “hyperemia in brain tissues” value is given as “Moderate” and the necrosis in neurons result is reported as “mild”. Besides, the “8 OHdG expression” value in the data set with 8-OHdG was “moderate”. The “Caspase-3 expression” value in the data set on Caspase 3 is listed as “moderate”. Moreover, the “H2A.X expression” value with H2A.X was “moderate”.

`CC(=O)NC(CS)C(=O)O` (centres unmarked) [Group 7]: in the data set with brain tissues (setting [1]), the Hyperemia result is reported as “++++ (severe (++++))”, the “degeneration in neurons” value is “++++ (severe (++++))” and the “necrosis in neurons” value is listed as “+++ (moderate (+++))”. The “8-OHdG (IHC)” value with 8-OHdG was “+++ (moderate (+++))”. Besides, in the data set on Caspase 3, the “Caspase 3 (IFA FITC)” value is on record as “+++ (moderate (+++))”. Further, the “H2A.X (IFA Texas Red)” value in the data set with H2A.X is on record as “+++ (moderate (+++))”.
